Experimental data reported in patent US4594329A, “CRF analogs” (The Salk Institute for Biological Studies, priority 1984, dated 1986).
Square brackets hold non-standard residues; d marks the D form. Peptide text beside a SMILES is read from it. hArg = N=C(N)NCCCC[C@H](N)C(=O)O; Nle = CCCC[C@H](N)C(=O)O; Orn = NCCC[C@H](N)C(=O)O

What was measured:
[1] = system: cultured rat pituitary cells; experiment: secretion of ACTH and β-endorphin by cultured rat pituitary cells; assay type: cell-based; details: for stimulates the secretion of ACTH and β-END-LI: general procedure of Example III
Experimental: (§1) The synthetic peptide AHC and oCRF were examined for their effects on the secretion of ACTH and β-endorphin in vitro and was also in vivo. The potency of synthetic oCRF to stimulate the secretion of ACTH and β-endorphin by cultured rat pituitary cells was measured using the procedure as generally set forth in Endocrinology, 91, 562 (1972). […] In vivo testing is carried out using the general procedure set forth in C. Rivier et al., Science, 218, 377 (1982).

[2] = lowering of blood pressure, in vivo testing; details: for lowering of blood pressure: general procedure of Example III
Experimental: as §1

| Compound | stimulates the secretion of ACTH and β-END-LI [1] | lowering of blood pressure [2] | lowering of blood pressure compared with rCRF ([2]; comparison with rCRF) | EC50 ([1]; cultured rat pituitary cells, read-out: concentration giving half-maximal responses, secretion of ACTH and β-endorphin) [nM] | potency ([1]; general statement, compared with native CRF, test not named) | secretory response to maximal concentrations ([1]; maximal (1-5 nM) concentrations) |
| --- | --- | --- | --- | --- | --- | --- |
| CC[C@H](C)[C@H](NC(=O)[C@@H]1CCCN1C(=O)[C@@H]1CCCN1)C(=O)N[C@@H](CO)C(=O)N[C@@H](CC(C)C)C(=O)N[C@@H](CC(=O)O)C(=O)N[C@@H](CC(C)C)C(=O)N[C@H](C(=O)N[C@@H](CC(C)C)C(=O)N[C@@H](Cc1c[nH]cn1)C(=O)N[C@@H](CC(C)C)C(=O)N[C@@H](CC(C)C)C(=O)N[C@@H](CCCNC(=N)N)C(=O)N[C@@H](CCC(=O)O)C(=O)N[C@@H](CCSC)C(=O)N[C@@H](CC(C)C)C(=O)N[C@@H](CCC(=O)O)C(=O)N[C@@H](CCSC)C(=O)N[C@@H](CCC(=O)O)C(=O)N[C@@H](CCCN)C(=O)N[C@@H](C)C(=O)N[C@@H](CCC(=O)O)C(=O)N[C@@H](CCC(N)=O)C(=O)N[C@@H](CCC(=O)O)C(=O)N[C@@H](C)C(=O)N[C@@H](CCC(=O)O)C(=O)N[C@@H](CCC(N)=O)C(=O)N[C@@H](C)C(=O)N[C@@H](C)C(=O)N[C@@H](CC(C)C)C(=O)N[C@@H](CC(N)=O)C(=O)N[C@@H](CCCNC(=N)N)C(=O)N[C@@H](CCCCNC(=N)N)C(=O)N[C@@H](CC(C)C)C(=O)N[C@@H](CC(C)C)C(=O)N[C@@H](CCC(=O)O)C(=O)N[C@@H](CCC(=O)O)C(=O)N[C@@H](C)C(N)=O)[C@@H](C)O (H-PPISLDLTLHLLREMLEME[Orn]AEQEAEQAALNR[hArg]LLEEA-NH2) | stimulates the secretion of ACTH and β-END-LI | very significant lowering of bloood pressure |  |  |  |  |
| Ac-GEEPPISLDLTFHLLREVLEMARAEQLAQQAHLNRKLMEEI-NH2 [[Acetyl-Gly^1, Leu^33, Glu^40]-rCRF] | stimulates the secretion of ACTH and β-END-LI | very significant lowering of blood pressure |  |  |  |  |
| H-SQEPPISLDLTFHLLRE[Nle]LE[Nle]AKAEQEAEQAALNRLLLEEA-NH2 [[Nle^18, 21]-AHC] | stimulates the secretion of ACTH and β-END-LI | very significant lowering of blood pressure |  |  |  |  |
| H-PPISLDLTFHLLREVLEMARAEQLAQQAHLNRKLMEQI-NH2 | stimulates the secretion of ACTH and β-END-LI | very significant lowering of blood pressure |  |  |  |  |
| H-SEEPPIS[Nle]DLSFHLLREVLEMARAEQLAQQAHLNRKLMEEI-NH2 [[Nle^8, Ser^11, Leu^33, Glu^40]-rCRF] | stimulates the secretion of ACTH and β-END-LI | very significant lowering of blood pressure |  |  |  |  |
| H-SEEPPISLDLTFHLLREVLE[Nle]ARAEQLAQQAYLNRKLMEEI-NH2 [[Nle^21, Tyr^32, Leu^33, Glu^40]-rCRF] | stimulates the secretion of ACTH and β-END-LI | very significant lowering of blood pressure | to a greater extent than rCRF |  |  |  |
| CCCC[C@H](NC(=O)[C@H](CCC(=O)O)NC(=O)[C@H](CCCNC(=N)N)NC(=O)[C@H](CC(C)C)NC(=O)[C@H](CC(C)C)NC(=O)[C@H](Cc1c[nH]cn1)NC(=O)[C@H](Cc1ccccc1)NC(=O)[C@@H](NC(=O)[C@H](CC(C)C)NC(=O)[C@H](CC(=O)O)NC(=O)[C@H](CC(C)C)NC(=O)[C@H](CO)NC(=O)[C@@H](NC(=O)[C@@H]1CCCN1C(=O)[C@@H]1CCCN1C(=O)[C@H](CCC(=O)O)NC(=O)[C@@H](N)CCC(N)=O)[C@@H](C)CC)[C@@H](C)O)C(=O)N[C@@H](CC(C)C)C(=O)N[C@@H](CCC(=O)O)C(=O)N[C@@H](CCSC)C(=O)N[C@H](C(=O)N[C@@H](CCCCN)C(=O)N[C@@H](C)C(=O)N[C@@H](CC(=O)O)C(=O)N[C@@H](CCC(N)=O)C(=O)N[C@@H](CC(C)C)C(=O)N[C@@H](C)C(=O)N[C@@H](CCC(N)=O)C(=O)N[C@@H](CCC(N)=O)C(=O)N[C@@H](C)C(=O)N[C@@H](Cc1c[nH]cn1)C(=O)N[C@@H](CO)C(=O)N[C@@H](CC(N)=O)C(=O)N[C@@H](CCCNC(=N)N)C(=O)N[C@@H](CCCCN)C(=O)N[C@@H](Cc1ccc(O)cc1)C(=O)N[C@@H](CC(C)C)C(=O)N[C@@H](CC(=O)O)C(=O)N[C@@H](CCC(=O)O)C(=O)N[C@@H](C)C(N)=O)[C@@H](C)O [[Nle^18,Tyr^37,Glu^40]-oCRF(2-41)] (H-QEPPISLDLTFHLLRE[Nle]LEMTKADQLAQQAHSNRKYLDEA-NH2) | stimulates the secretion of ACTH and β-END-LI | very significant lowering of blood pressure |  |  |  |  |
| CC[C@H](C)[C@H](NC(=O)[C@H](CCC(=O)O)NC(=O)[C@H](CC(=O)O)NC(=O)[C@H](CCSC)NC(=O)[C@H](CC(C)C)NC(=O)[C@H](CCCCNC(=N)N)NC(=O)[C@H](CCCNC(=N)N)NC(=O)[C@H](CC(N)=O)NC(=O)[C@H](CC(N)=O)NC(=O)[C@H](C)NC(=O)[C@H](C)NC(=O)[C@H](CCC(N)=O)NC(=O)[C@H](CCC(N)=O)NC(=O)[C@H](CCCCN)NC(=O)[C@H](CC(C)C)NC(=O)[C@H](CCCCN)NC(=O)[C@H](CCC(=O)O)NC(=O)[C@H](CCC(N)=O)NC(=O)[C@H](CCCCN)NC(=O)[C@H](CCC(=O)O)NC(=O)[C@@H](NC(=O)[C@H](CCC(=O)O)NC(=O)[C@@H](NC(=O)[C@H](CCSC)NC(=O)[C@H](CCCCN)NC(=O)[C@H](CCCNC(=N)N)NC(=O)[C@H](CC(C)C)NC(=O)[C@H](CC(C)C)NC(=O)[C@H](CCC(=O)O)NC(=O)[C@H](CC(C)C)NC(=O)[C@H](CO)NC(=O)[C@H](CC(C)C)NC(=O)[C@H](CC(=O)O)NC(=O)[C@@H](NC(=O)[C@H](CO)NC(=O)[C@@H](NC(=O)[C@@H]1CCCN1C(=O)[C@@H]1CCCN1C(=O)CNC(=O)[C@@H]1CCC(=O)N1)[C@@H](C)CC)[C@@H](C)CC)[C@@H](C)CC)[C@@H](C)CC)C(N)=O | stimulates the secretion of ACTH and β-END-LI | very significant lowering of blood pressure |  |  |  |  |
| CCCC[C@H](NC(=O)[C@H](CCC(=O)O)NC(=O)[C@H](CC(C)C)NC(=O)[C@H](CCCC)NC(=O)[C@H](CCC(=O)O)NC(=O)[C@H](CCCNC(=N)N)NC(=O)[C@H](CC(C)C)NC(=O)[C@H](CC(C)C)NC(=O)[C@H](Cc1c[nH]cn1)NC(=O)[C@H](Cc1ccccc1)NC(=O)[C@@H](NC(=O)[C@H](CC(C)C)NC(=O)[C@H](CC(=O)O)NC(=O)[C@H](CC(C)C)NC(=O)[C@H](CO)NC(=O)[C@@H](N)[C@@H](C)CC)[C@@H](C)O)C(=O)N[C@@H](C)C(=O)N[C@@H](CCCCN)C(=O)N[C@@H](C)C(=O)N[C@@H](CCC(=O)O)C(=O)N[C@@H](CCC(N)=O)C(=O)N[C@@H](CCC(=O)O)C(=O)N[C@@H](C)C(=O)N[C@@H](CCC(=O)O)C(=O)N[C@@H](CCC(N)=O)C(=O)N[C@@H](C)C(=O)N[C@@H](C)C(=O)N[C@@H](CC(C)C)C(=O)N[C@@H](CC(N)=O)C(=O)N[C@@H](CCCNC(=N)N)C(=O)N[C@@H](CCCNC(=N)N)C(=O)N[C@@H](CC(C)C)C(=O)N[C@@H](CC(C)C)C(=O)N[C@@H](CCC(=O)O)C(=O)N[C@@H](CCC(=O)O)C(=O)N[C@@H](C)C(N)=O [[Nle^18,21,Arg^36]-AHC(6-41)] (H-ISLDLTFHLLRE[Nle]LE[Nle]AKAEQEAEQAALNRRLLEEA-NH2) | stimulates the secretion of ACTH and β-END-Li | very significant lowering of blood pressure |  |  |  |  |
| H-YSEEPPISLDLTFHLLREVLEMARAEQLAEQAHSNRKLMEII-NH2 [[Tyr-Ser^1, Glu^29]-rCRF] | stimulates the secretion of ACTH and β-END-LI | very significant lowering of blood pressure |  |  |  |  |
| CC[C@H](C)[C@H](NC(=O)[C@@H](NC(=O)[C@H](CCC(=O)O)NC(=O)[C@H](CC(C)C)NC(=O)[C@H](CC(C)C)NC(=O)[C@H](CCCCN)NC(=O)[C@H](CCCNC(=N)N)NC(=O)[C@H](CC(N)=O)NC(=O)[C@H](CO)NC(=O)[C@H](Cc1c[nH]cn1)NC(=O)[C@H](C)NC(=O)[C@H](CCC(N)=O)NC(=O)[C@H](CCC(=O)O)NC(=O)[C@H](C)NC(=O)[C@H](CC(C)C)NC(=O)[C@H](CCC(N)=O)NC(=O)[C@H](CCC(=O)O)NC(=O)[C@H](CCCN)NC(=O)[C@H](C)NC(=O)[C@H](CCSC)NC(=O)[C@H](CCC(=O)O)NC(=O)[C@H](CC(C)C)NC(=O)[C@@H](NC(=O)[C@H](CCC(=O)O)NC(=O)[C@H](CCCNC(=N)N)NC(=O)[C@H](CC(C)C)NC(=O)[C@H](CC(C)C)NC(=O)[C@H](Cc1c[nH]cn1)NC(=O)[C@H](Cc1ccccc1)NC(=O)[C@@H](NC(=O)[C@H](CC(C)C)NC(=O)[C@H](CC(=O)O)NC(=O)[C@H](CC(C)C)NC(=O)[C@H](CO)NC(=O)[C@@H](NC(=O)[C@@H]1CCCN1C(=O)[C@@H]1CCCN1C(=O)[C@H](CCC(=O)O)NC(=O)[C@H](CCC(N)=O)NC(=O)[C@@H](N)CO)[C@@H](C)CC)[C@@H](C)O)C(C)C)[C@@H](C)CC)C(N)=O [[Gln^2, Orn^23, Glu^29, Leu^38]-rCRF] (H-SQEPPISLDLTFHLLREVLEMA[Orn]EQLAEQAHSNRKLLEII-NH2) | stimulates the secretion of ACTH and β-END-LI | very significant lowering of blood pressure |  |  |  |  |
| H-SQEPPISLDLTFHLLREMLEMAKAEQEAEQAALNRLLLEEA-NH2 [AHC] |  |  |  | ~0.065 | particularly potent | at a plateau level |
